The target of test [1] is T1, AaBioW (pimeloyl-CoA synthetase BioW) (Aquifex aeolicus, UniProt O67575). Put plainly: TLC adenylation/proofreading assay. It counts as biochemical.
The target of test [2] is T1, AaBioW (pimeloyl-CoA synthetase BioW). Put plainly: co-crystal structure with CoA. It counts as binding.
Test [3] shares this target. In words: TLC proofreading assay. It counts as biochemical.
Test [4] has the same target. Put plainly: ITC. It counts as binding.
Test [5] has the same target. Put plainly: ITC. It counts as binding. The source holds these as a separate data set.

The term Kd denotes the equilibrium constant for the complex coming apart.

Read-outs that look alike come from different tables or passages of the source.

T1 sequence (O67575 whole entry): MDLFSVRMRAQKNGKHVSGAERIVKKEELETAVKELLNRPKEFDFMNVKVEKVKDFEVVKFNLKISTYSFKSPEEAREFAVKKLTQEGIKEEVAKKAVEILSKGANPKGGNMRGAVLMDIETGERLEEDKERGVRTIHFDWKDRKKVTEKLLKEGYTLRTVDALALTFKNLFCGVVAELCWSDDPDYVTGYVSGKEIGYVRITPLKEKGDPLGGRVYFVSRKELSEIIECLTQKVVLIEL

For `O=C(O)CCCCCCC(=O)O` [compound 5, suberate], in test [1], the TLC adenylation/proofreading assay result is “adenylated intermediates can be observed for the cognate C7, as well as for the noncognate C6 and C8 substrates”. Same read-out and setting: then `O=C(O)CCCCC(=O)O` [compound 4, adipate], with “adenylated intermediates can be observed for the cognate C7, as well as for the noncognate C6 and C8 substrates”. With `Nc1ncnc2c1ncn2[C@@H]1O[C@H](COP(=O)(O)O)[C@@H](O)[C@H]1O` [AMP], the “co-crystal structure with CoA (2.25 Å)” value in test [2] is “AaBioW with CoA–AMP (5TVA)”. Consider `O=C(O)CCCC(=O)O` [compound 3, glutarate], for which the “TLC proofreading assay (AMP accumulation)” value in test [3] was “reactions carried out using glutarate in the absence of CoA resulted only in the accumulation of AMP”. As for `Nc1ncnc2c1ncn2[C@@H]1O[C@H](COP(=O)(O)OP(=O)(O)OP(=O)(O)O)[C@@H](O)[C@H]1O` [ATP], in test [4], the dissociation constant (Kd) is 13 ± 3 µM. The compound `CC(C)(COP(=O)(O)OP(=O)(O)OC[C@H]1O[C@@H](n2cnc3c(N)ncnc32)[C@H](O)[C@@H]1OP(=O)(O)O)[C@@H](O)C(=O)NCCC(=O)NCCS` [CoA] came in with a dissociation constant (Kd) in test [5] of 14 ± 2.5 µM.

Values taken from publication PMC7310518 (Nature chemical biology, 2017).
